Assay results published in patent US5770732A, “Pyrrolinone-based peptidomimetics” (The Trustees of the University of Pennsylvania, priority 1994, dated 1998).

Biological target: T1, renin (Homo sapiens, UniProt P00797)
T1 sequence (P00797 67-406): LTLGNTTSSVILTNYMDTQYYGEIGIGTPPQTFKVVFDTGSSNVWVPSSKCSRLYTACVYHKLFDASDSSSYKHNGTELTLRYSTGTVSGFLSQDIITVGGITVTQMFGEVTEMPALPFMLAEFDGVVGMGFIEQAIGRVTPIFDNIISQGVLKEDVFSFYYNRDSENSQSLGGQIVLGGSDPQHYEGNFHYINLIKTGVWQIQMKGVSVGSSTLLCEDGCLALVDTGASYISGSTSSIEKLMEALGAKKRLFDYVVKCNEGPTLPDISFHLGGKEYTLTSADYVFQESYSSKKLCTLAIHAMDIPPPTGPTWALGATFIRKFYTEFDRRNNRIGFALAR
Test: Renin inhibition
Type: biochemical

“[5(S)-prenyl-(5-benzyl)pyrrolin-4-one-3]-2(R)-isobutylacetate-[1-amino-1(S)-cyclohexylmethyl-2(R)3 3(S)-dihydroxy-5-methyl-hexane]-amide [Structure (10a)]” was tested, and the “concentration at which found to act as effective renin inhibitor” value was 700 nM.
